According to patent US6762029B2, “Methods of identifying agents that modulate P2Y12 receptor activity” (Portola Pharmaceuticals, Inc., priority 1999, dated 2004):
One block for each molecule: values may come before it.

Columns and labels:
hP2Y12 [1] = target: T1, hP2Y12 (Homo sapiens, UniProt Q9H244); assay: Forskolin-stimulated cAMP accumulation in CHO cells stably expressing hP2Y12; type: cell-based
T1 construct: expressed in transfected cells; host or cells: Xenopus laevis oocytes injected with hP2Y12 cRNA (50 pg) plus Kir3.1 and Kir3.4 cRNAs
T1 sequence (Q9H244 whole entry): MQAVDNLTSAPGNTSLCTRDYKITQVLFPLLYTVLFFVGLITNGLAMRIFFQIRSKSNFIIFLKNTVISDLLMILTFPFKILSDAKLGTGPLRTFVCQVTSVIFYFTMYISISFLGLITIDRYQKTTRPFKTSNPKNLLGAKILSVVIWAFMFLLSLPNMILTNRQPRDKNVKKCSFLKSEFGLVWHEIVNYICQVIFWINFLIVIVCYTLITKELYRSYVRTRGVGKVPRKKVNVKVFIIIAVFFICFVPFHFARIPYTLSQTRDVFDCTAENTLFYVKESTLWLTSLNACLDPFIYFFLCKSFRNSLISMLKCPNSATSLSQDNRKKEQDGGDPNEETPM
Protocol: Chinese Hamster Ovary (CHO) cells or rat 2-9 fibroblasts, which are null for Gi-linked purinergic receptors, were transfected with hP2Y12 or rP2Y12 cDNA's, respectively using FuGene reagent (Roche), and cells were cultured in the presence of G418 for 2 weeks to select for stable transfectants. For cAMP assays, stably transfected CHO cells expressing the hP2Y12 plasmid were plated in 12-well dishes. Forty-eight hours later media was removed from the cells and replaced with serum-free media containing IBMX (0.25 mM final) and incubated at 37° C. for 5 minutes. Cells were incubated for an additional 5 min with 10 μM forskolin, as well as the indicated agonists and antagonists. Pertussis toxin treatment (30 ng/ml) occurred for 20 hrs at 37° C. prior to assay. Cyclic AMP levels were determined from aliquots of cell extracts in a radioimmunoassay (Amersham Biotrak cAMP ^125I assay system).
FIG. 3(A). Receptor coupling to adenylyl cyclase was assessed as ADP-mediated (0.1-10 μM) inhibition of forskolin-stimulated (10 μM) cAMP accumulation (CON=control, normalized to 100%). (B) The effect of the specific antagonists 2MeSAMP (2-MES)(50 μM) and C1330-7 (50 μM) on repression of ADP-mediated (1 μM) forskolin-stimulated cAMP levels. (C) Effect of pertussis toxin (PTX) pretreatment on the inhibition by 10 μM ADP of forskolin-stimulated cAMP levels. Results are the mean+/−s.d. of three representative experiments performed in triplicate.

P2Y12 receptor [2] = target: T2, P2Y12 receptor (UniProt Q9H244); assay: Two-electrode voltage-clamp of Xenopus oocytes expressing P2Y12 with Kir3.1 and 3.4: agonist-stimulated potassium currents; type: cell-based; conditions: FIG. 1C; for EC50: Xenopus oocytes with Kir3.1 and 3.4, currents normalized to 10 μM ADP, Hill fit
T2 construct: EC50, potassium currents in oocytes; other: Xenopus oocytes with Kir3.1 and 3.4; currents normalized to 10 μM ADP; Hill; potency compared to ADP
Protocol: (§1) Defolliculated Xenopus laevis oocytes were injected with a positive 500 clone pool (10 ng), rP2Y12 (10 pg), hP2Y12 (50 pg), Kir3.1, Kir3.4, PTX and hm2 (1 ng each) cRNAs as indicated. Three to seven days after injection, two-electrode voltage-clamp recordings were performed using a Geneclamp 500 amplifier (Axon Instruments) and a Maclab A/D converter (Maclab). Membrane potentials were clamped at −70 mV while the recording chamber was perfused at a rate of 2 ml/min with a solution containing (in mM) 70 KCl, 20 NaCl, 3 MgCl2, 5 HEPES, pH 7.4, at room temperature. The KCl was replaced with NaCl to examine responses in zero potassium. Agonists and antagonists (Roche Molecular Biochemistry or Sigma) were diluted in the recording solution. Experiments using C1330-7 included 0.1% dimethylsulfoxide to enhance its solubility in the perfusate.
(§2) FIG. 1(A). Activation of potassium-dependent currents in Xenopus oocytes expressing P2Y12 with Kir3.1 and 3.4. ADP (10 μM) was applied (short bars) in the presence or absence (long bar) of extracellular potassium (70 mM) while recording membrane currents in the whole-cell voltage clamp configuration. […] (B) ADP-selective stimulation of potassium channel-dependent currents by P2Y12 occurs via a pertussis toxin-sensitive pathway. UDP, adenosine (A), ATP-α-S or ADP (10 μM each) were sequentially applied to oocytes expressing the rat or human receptor with or without Kir3.1, 3.4 and pertussis toxin (PTX). (C) The agonist profile of P2Y12 recapitulates that observed for the Gi-coupled platelet ADP receptor. Concentration-response curves for ADP and 2MeSADP are presented. Membrane currents were normalized in each oocyte to a response obtained with 10 μM ADP. Each point represents the mean values (+/−s.d.) from five independent oocytes. The Hill equation was used to fit the response data.

hP2Y12 [3] = target: T1, hP2Y12; assay: Two-electrode voltage-clamp of Xenopus oocytes expressing hP2Y12 with Kir3.1 and 3.4: inhibition of ADP-stimulated potassium currents; type: cell-based
Protocol: as §1
(§3) FIG. 2(A). […] The dot (.) indicates the start of a 15 sec application of ADP, while bars denote co-application with the antagonist. (B) 2MeSAMP and C1330-7 inhibition curves. Current responses were normalized to that elicited by ADP (500 nM) alone in each oocyte and plotted as the mean+/−s.d. Curves were fitted to the data using the Hill equation (n=5 independent oocytes for each point). (C) Selective ablation of P2Y12 but not m2 muscarinic receptor signaling by the thiol reagent pCMBS. ADP (10 μM), carbachol (1 μM), and pCMBS (1 mM) were applied sequentially to an oocyte expressing both receptors concurrently with Kir3.1 and 3.4. Bars indicate periods of drug application (10 sec).

hP2Y12 [4] = target: T1, hP2Y12; assay: [3H]2MeSADP binding to membranes of COS7 cells transiently transfected with hP2Y12 (rapid filtration); conditions: 4 C, 30 minutes
Protocol: hP2Y12 cDNA was transiently transfected into cos7 cells and crude membranes were prepared using standard procedures. Binding of 1 nM [^3H]2MeSADP at various membrane protein concentrations and in the absence and presence of various inhibitors was determined at 4 C. for 30 minutes in a rapid filtration assay (triplicates). Non-specific binding was determined with 10 uM 2MeSADP and subtracted from all data. Each experiment included membranes from untransfected cells.

rat P2Y12 = target: T3, rat P2Y12 (Rattus norvegicus, UniProt Q9EPX4); assay: Two-electrode voltage-clamp of Xenopus oocytes expressing rat P2Y12: inhibition of ADP-evoked signal; type: cell-based
T3 construct: expressed in transfected cells; host or cells: Xenopus laevis oocytes injected with rP2Y12 cRNA (10 pg) plus Kir3.1 and Kir3.4 cRNAs
T3 sequence (Q9EPX4 whole entry): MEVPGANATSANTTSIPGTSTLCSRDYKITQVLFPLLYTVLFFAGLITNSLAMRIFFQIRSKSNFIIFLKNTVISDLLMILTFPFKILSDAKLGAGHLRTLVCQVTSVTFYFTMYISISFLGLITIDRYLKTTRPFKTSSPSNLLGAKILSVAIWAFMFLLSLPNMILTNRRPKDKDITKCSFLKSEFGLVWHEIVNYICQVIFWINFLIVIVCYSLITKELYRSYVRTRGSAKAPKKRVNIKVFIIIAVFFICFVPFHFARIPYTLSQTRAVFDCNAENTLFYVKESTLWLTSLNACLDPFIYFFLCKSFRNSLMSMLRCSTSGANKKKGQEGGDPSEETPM
Protocol: as §1

P2Y12 receptor [5] = assay: Two-electrode voltage-clamp of Xenopus oocytes expressing P2Y12 with Kir3.1 and 3.4: agonist-stimulated potassium currents; type: cell-based; conditions: 10 μM each, FIG. 1B
Protocol: as §1, §2

m2 muscarinic receptor = target: T4, m2 muscarinic receptor (Homo sapiens, UniProt P08172); assay: Carbachol-activated Kir3.1/3.4 currents via m2 muscarinic receptor in the same oocytes; type: cell-based; conditions: 1 mM, carbachol 1 μM, FIG. 2C
T4 construct: expressed in transfected cells; host or cells: Xenopus laevis oocytes injected with hm2 cRNA (1 ng) together with hP2Y12, Kir3.1 and Kir3.4
T4 sequence (P08172 1-466): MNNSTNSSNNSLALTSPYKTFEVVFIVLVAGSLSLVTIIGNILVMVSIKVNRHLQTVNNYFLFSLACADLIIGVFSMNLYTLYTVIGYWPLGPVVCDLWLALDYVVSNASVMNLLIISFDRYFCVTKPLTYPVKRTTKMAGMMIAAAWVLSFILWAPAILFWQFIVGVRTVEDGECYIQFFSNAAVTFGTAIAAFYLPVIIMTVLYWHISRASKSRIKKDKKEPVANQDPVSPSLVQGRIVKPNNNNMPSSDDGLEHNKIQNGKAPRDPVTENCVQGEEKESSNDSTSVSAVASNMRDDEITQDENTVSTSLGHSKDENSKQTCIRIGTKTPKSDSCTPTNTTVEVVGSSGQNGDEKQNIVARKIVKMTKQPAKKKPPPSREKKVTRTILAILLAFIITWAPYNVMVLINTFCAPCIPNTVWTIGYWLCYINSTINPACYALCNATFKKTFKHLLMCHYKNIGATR
Protocol: as §1
as §3, with “ADP (10 μM), carbachol (1 μM), and pCMBS (1 mM) were applied sequentially to an oocyte expressing both receptors concurrently with Kir3.1 and 3.4. Bars indicate periods of drug application (10 sec).” left out

Molecule: Nc1ncnc2c1ncn2[C@@H]1O[C@H](COP(=O)(O)OP(=O)(O)O)[C@@H](O)[C@H]1O [ADP, adenosine 5′-diphosphate]
maximum reduction of forskolin-stimulated cAMP levels (hP2Y12 [1]; 10 μM ADP, 10 μM forskolin, FIG. 3A): 47% | EC50 (P2Y12 receptor [2]): 300 nM

Molecule: CSc1nc(N)c2ncn([C@@H]3O[C@H](COP(=O)(O)O)[C@@H](O)[C@H]3O)c2n1 [2MeSAMP]
effect on repression of cAMP levels by 1 μM ADP (hP2Y12 [1]; antagonist 50 μM, 10 μM forskolin, FIG. 3B): reversed | effect on forskolin-stimulated cAMP levels in the absence of agonist (hP2Y12 [1]; no agonist): Neither of these antagonists had effects | block of ADP (1 μM) responses (hP2Y12 [3]; antagonist 10 μM, FIG. 2A): reversible block | IC50 (hP2Y12 [3]; oocytes expressing rat or human P2Y12 (FIG. 2B: hP2Y12), ADP 500 nM, read-out: IC50, block of ADP-induced K+ currents): 1400 nM | competition of 1 nM [3H]2MeSADP binding to membranes from transfected cells (hP2Y12 [4]; 50 μM): essentially to the level of untransfected cells

Molecule: pertussis toxin
effect of pretreatment on ADP effects on forskolin-stimulated cAMP (hP2Y12 [1]; 30 ng/ml for 20 hrs, 10 μM ADP, FIG. 3C): abolished

Molecule: O=S(=O)(O)c1cc[c]([Hg][Cl])cc1 [pCMBS, p-chloromercuriphenylsulfonic acid]
effect on activation of the signaling pathway by m2 muscarinic receptors (m2 muscarinic receptor): unaffected | effect on ADP-evoked current responses (hP2Y12 [3]; brief exposure, 1 mM, ADP 10 μM, FIG. 2C): eliminated

More lines, now with the values ahead:

inhibitory effect on the signal evoked by ADP (hP2Y12 [3]; human P2Y12, FIG. 2A): no inhibitory effect | competition of 1 nM [3H]2MeSADP binding to membranes from transfected cells (hP2Y12 [4]; 300 μM): only little effect | inhibitory effect on the signal evoked by ADP (rat P2Y12): no inhibitory effect
Molecule: Nc1ncnc2c1ncn2[C@@H]1O[C@H](COP(=O)(O)O)[C@@H](OP(=O)(O)O)[C@H]1O [A3P5P]

EC50 (P2Y12 receptor [2]): 0.9 nM | potency compared to ADP (P2Y12 receptor [2]; ratio of EC50s): 2 orders of magnitude
Molecule: CSc1nc(N)c2ncn([C@@H]3O[C@H](COP(=O)(O)OP(=O)(O)O)[C@@H](O)[C@H]3O)c2n1 [2MeSADP]

agonist effect on potassium currents (P2Y12 receptor [5]): weak agonist
Molecule: Nc1ncnc2c1ncn2[C@@H]1O[C@H](COP(O)(=S)OP(=O)(O)OP(=O)(O)O)[C@@H](O)[C@H]1O (stereo partly shown) [ATP-αS]
